ChEMBL document CHEMBL2016443, “From ApoA1 upregulation to BET family bromodomain inhibition: discovery of I-BET151” (Bioorg Med Chem Lett, 2012)
Active and inactive are the calls of the source. The calls are words filed in the database; no cut-off is given here.

Legend:
Hepatocyte [1] = assay: Bioactivation in rat hepatocytes assessed as compound epoxidation; assay type: cell-based
Mus musculus [2] = assay: Antiinflammatory activity in LPS-stimulated acute inflammation BALB/c mouse model assessed as inhibition of plasma PAI-1 level at 10 mg/kg, po administered 2 hrs before LPS challenge; assay type: functional
HepG2 = assay: Upregulation of ApoA1 expression in human HepG2 cells assessed as concentration required to increase 70% of luciferase activity after 18 hrs by luciferase reporter gene assay; assay type: functional
Rattus norvegicus [3] = organism: Rattus norvegicus; assay: Half life in CD rat; assay type: ADME, organism-based; settings: in vivo
Mus musculus [4] = assay: Antiinflammatory activity in LPS-stimulated acute inflammation BALB/c mouse model assessed as inhibition of plasma TNF-alpha level at 10 mg/kg, po administered 2 hrs before LPS challenge; assay type: functional
PBMC [5] = assay: Inhibition of LPS-stimulated IL-6 production in human PBMC; assay type: functional, cell-based
Cytochrome P450 2C9 = Cytochrome P450 2C9 (Homo sapiens, UniProt P11712); assay: Inhibition of CYP2C9; assay type: ADME
Cytochrome P450 2C9, sequence (P11712 whole entry): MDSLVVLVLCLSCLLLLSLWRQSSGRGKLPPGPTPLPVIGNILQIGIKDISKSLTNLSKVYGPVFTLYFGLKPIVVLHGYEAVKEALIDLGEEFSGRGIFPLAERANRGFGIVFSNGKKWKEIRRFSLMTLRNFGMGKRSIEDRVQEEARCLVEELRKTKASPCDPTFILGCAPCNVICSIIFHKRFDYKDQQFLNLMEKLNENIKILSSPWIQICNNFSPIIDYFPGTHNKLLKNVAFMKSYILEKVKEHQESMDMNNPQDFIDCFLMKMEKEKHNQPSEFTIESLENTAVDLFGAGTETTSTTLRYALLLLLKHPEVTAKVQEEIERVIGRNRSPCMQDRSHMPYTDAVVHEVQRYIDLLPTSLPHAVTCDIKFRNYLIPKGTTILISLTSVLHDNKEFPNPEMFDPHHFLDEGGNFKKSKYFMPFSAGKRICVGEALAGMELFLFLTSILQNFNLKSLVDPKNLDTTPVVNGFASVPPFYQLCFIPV

Mus musculus [6] = assay: Antiinflammatory activity in LPS-stimulated acute inflammation BALB/c mouse model assessed as inhibition of plasma IL-6 level at 10 mg/kg, po administered 2 hrs before LPS challenge; assay type: functional
Salmonella typhimurium = assay: Mutagenic activity in Salmonella typhimurium by Ames assay; assay type: toxicity, organism-based; settings: salmonella enterica subsp. enterica serovar typhimurium
THP-1 = assay: Antiinflammatory activity in human THP1 cells; assay type: functional, cell-based
Hepatocyte [7] = assay: Bioactivation in rat hepatocytes assessed as glutathione trapping; assay type: cell-based
[8] = Oral bioavailability in CD rat; assay type: ADME, organism-based; settings: in vivo
Rattus norvegicus [9] = organism: Rattus norvegicus; assay: Dose normalized AUC (0 to infinity ) in CD rat; assay type: ADME, organism-based; settings: in vivo
PBMC [10] = assay: Inhibition of LPS-stimulated TNFalpha production in human PBMC; assay type: functional, cell-based
Hepatocyte [11] = assay: Bioactivation in human hepatocytes assessed as compound epoxidation; assay type: cell-based
Hepatocyte [12] = assay: Bioactivation in human hepatocytes assessed as glutathione trapping; assay type: cell-based
[13] = Volume of distribution at steady state in CD rat; assay type: ADME, organism-based; settings: in vivo, read-out: Vdss
Mus musculus [14] = assay: Antiinflammatory activity in LPS-stimulated acute inflammation BALB/c mouse model assessed as inhibition of plasma MCP-1 level at 10 mg/kg, po administered 2 hrs before LPS challenge; assay type: functional

- Drug metabolism (Hepatocyte [1]): Not Active
- t1/2 (Rattus norvegicus [3]): 1.7 h
- IC50 (Cytochrome P450 2C9): 9.9 µM
- Drug metabolism (Hepatocyte [7]): Not Active
- bioavailability [8]: 66%
- AUC/dose (Rattus norvegicus [9]): 38 kg·min/L
- Drug metabolism (Hepatocyte [11]): Not Active
- Drug metabolism (Hepatocyte [12]): Not Active
- Vd [13]: 2.1 L/kg
SMILES: COc1cc2c(cc1-c1c(C)noc1C)ncc1[nH]c(=O)n([C@H](C)c3ccccn3)c12
- inhibition in vivo at 10 mg/kg (Mus musculus [2]): 35%
- EC170 (HepG2): 0.09 µM
- inhibition in vivo at 10 mg/kg (Mus musculus [4]): 65%
- inhibition (PBMC [5]): Dose-dependent effect
- inhibition in vivo at 10 mg/kg (Mus musculus [6]): 75%
- Activity (Salmonella typhimurium): Non-toxic
- Activity (THP-1): Active
- inhibition (PBMC [10]): Dose-dependent effect
- inhibition in vivo at 10 mg/kg (Mus musculus [14]): 47%
